Earlier results in US5370879A, “Formulations and their use in the treatment of neurological diseases” (Elan Corporation, plc, priority 1990, dated 1994).

Tests used:
MS patients [1] = conditions: orally in multiple daily doses
MS patients [2] = system: MS patients
[3] = system: potassium ion flow in nerve impulse transmission
[4] = system: patients with Alzheimer's disease
[5] = orally in multiple daily doses over 2-5 days

Row | Compound | specific neurological deficits (MS patients [1]) | visual evoked response latencies (MS patients [1]) | conduction of nerve impulses (MS patients [2]) | symptoms in MS patients (MS patients [2]) | improvements noted in clinical trials (MS patients [2]; [5]) | side effects (MS patients [2]; [5]) | conduction in blocked demyelinated nerves [3] | potassium ion flow in nerve impulse transmission [3] | mental functions [4]
1 | Nc1ccncc1N [3,4-DAP, 3,4-Di-aminopyridine] | improve specific neurological deficits | improve | – | – | – | – | – | – | –
2 | Nc1ccncc1 [Example 4-AP, 4-Aminopyridine] | – | – | improve the conduction of nerve impulses | alleviating symptoms in MS patients | mild to marked improvements | minimal side effects | effective in restoring conduction in blocked demyelinated nerves | slow the potassium ion flow | improve the mental functions
